Measured values from patent US20230110128A1, “USE OF ANTIBODY DRUG CONJUGATES COMPRISING TUBULIN DISRUPTING AGENTS TO TREAT SOLID TUMOR” (Seagen Inc., priority 2018, published 2023).
Non-standard residues stand in square brackets, D forms with d. Residues, ends and D or L forms follow the SMILES beside them. *: point of attachment. Dolaproine = CO[C@@H]([C@@H]1CCCN1)[C@@H](C)C(=O)O; Dil = CC[C@H](C)[C@H](NC)[C@@H](CC(=O)O)OC; X1 = C[C@@H](N*)[C@@H](O)c1ccccc1; NMeV = CN[C@H](C(=O)O)C(C)C

Experiments:
Format in all cases: cell-based
[1] = tested on: MCF7 cells; assay: ATP secretion from MCF7 cells
[2] = tested on: MCF7 cells co-cultured with macrophages; assay: Macrophage antigen presentation after co-culture with treated MCF7 cells; conditions: MCF7 treated 24 hours; macrophages harvested 4 days after co-culture
Description: MCF7 […] cells were treated with MMAE, an MMAE-containing ADC (anti-CD71 OKT9-1006), vincristine, and Paclitaxel for 24 hours. Cells were washed and harvested, and subsequently co-cultured with the enriched macrophages prepared above. Macrophages were harvested 4 days after co-culture and assayed for immune activation by flow cytometry. […] Supernatant from the co-culture of macrophages and dying MCF7 cells was harvested 24 hours later and assayed for levels of cytokine and chemokine production by ELISA and normalized to macrophages that were co-cultured with untreated tumor cells.

[3] = tested on: PC-3 cells; assay: HMGB1 release from PC-3 cells; conditions: FIG. 3E
[4] = tested on: MiaPaca2 cells; assay: ATP secretion from MiaPaca2 cells; conditions: supernatant after 16 hours
Description: MiaPaca2 cells were treated with MMAE, Vincristine, or Paclitaxel. Supernatant was collected after 16 hours of treatment, and analyzed for ATP secretion.

[5] = tested on: MCF7 breast cancer cells; assay: Western blot analysis of ER stress response in MCF7 cells; conditions: 16 hours
Description: MCF7 breast cancer cells were treated with 100 nM MMAE for 16 hours and harvested RIPA buffer for western blot analysis.
MCF7 cells were treated with MMAE or an MMAE-containing ADC (SGN-LIV1A) for 16 hours and harvested in […] for western bot analysis. […] Induction of ICD is also characterized by the secretion of ATP and HMGB1. Extracellular ATP serves as a strong chemotactic signal, promoting immune cell migration to the tumor site. Upon arrival, extracellular HMGB1 signals through various pro-inflammatory receptors (TLR2, TLR4, RAGE) to activate antigen-presenting cells, thereby promoting immune activity within the tumor.

[6] = tested on: A2058, SK-MEL-5, and SK-MEL-28 (skin) cells co-cultured with macrophages; assay: Macrophage antigen presentation after co-culture with treated skin tumor cells; conditions: tumor cells treated 24 hours; macrophages harvested 4 days after co-culture; normalized to untreated
Description: (§1) Macrophages were enriched from PBMCs from 2 healthy donors by adhering PBMCs to cell culture-grade plastic. Non-adherent cells were removed 24 hours later, leaving a population of cells enriched for macrophages.
A2058, SK-MEL-5, and SK-MEL-28 (skin) cells were treated with MMAE, vincristine, and Paclitaxel for 24 hours. Cells were washed and harvested, and subsequently co-cultured with the enriched macrophages prepared above. Macrophages were harvested 4 days after co-culture and assayed for immune activation by flow cytometry. The level of antigen-presentation (as measured by frequency of MHCII-expressing cells) was quantified and normalized to macrophages that were co-cultured with untreated tumor cells.

[7] = tested on: T-24 tumor cells co-cultured with macrophages; assay: Cytokine and chemokine production in macrophage co-culture with treated T-24 cells; conditions: T-24 co-culture supernatant after 24 hours, ELISA, normalized to untreated
Description: T-24 (bladder) cells were treated with MMAE or an MMAE-containing ADC (ASG-22ME) for 48 hours and analyzed for ATP secretion. […] T-24 cells were also treated with MMAE, an MMAE-containing ADC (ASG22ME, Enfortumab vedotin), vincristine, and Paclitaxel for 24 hours. Cells were washed and harvested, and subsequently co-cultured with the enriched macrophages as above. Macrophages were harvested 4 days after co-culture and assayed for immune activation by flow cytometry. Level of antigen-presentation (as measured by frequency of MHCII-expressing macrophages) was quantified and normalized to macrophages that were co-cultured with untreated tumor cells. […] Supernatant from the co-culture of macrophages and dying T-24 tumor cells was harvested after 24 hours and assayed for levels of cytokine and chemokine production by ELISA and normalized to macrophages that were co-cultured with untreated tumor cells.

[8] = tested on: BxPC3 and HPAFII (pancreas) cells co-cultured with macrophages; assay: Macrophage antigen presentation after co-culture with treated pancreas tumor cells; conditions: BxPC3 and HPAFII treated 24 hours; macrophages harvested 4 days after co-culture
Description: as §1
BxPC3 and HPAFII (pancreas) cells were treated with MMAE, vincristine, and Paclitaxel for 24 hours. Cells were washed and harvested, and subsequently co-cultured with the enriched macrophages prepared above. Macrophages were harvested 4 days after co-culture and assayed for immune activation by flow cytometry. Level of antigen-presentation (as measured by frequency of MHCII-expressing cells) was quantified and normalized to macrophages that were co-cultured with untreated tumor cells.

[9] = tested on: Calu-1 cells co-cultured with macrophages; assay: Cytokine and chemokine production in macrophage co-culture with treated Calu-1 cells; conditions: Calu-1 co-culture supernatant 24 hours, ELISA, normalized to untreated
Description: Supernatant from the co-culture of macrophages and dying tumor cells was harvested 24 hours later and assayed for levels of cytokine and chemokine production by ELISA and normalized to macrophages that were co-cultured with untreated tumor cells as described above.

[10] = tested on: Hep3b, Huh7, and JHH7 cells co-cultured with macrophages; assay: Cytokine and chemokine production in macrophage co-culture with treated liver tumor cells; conditions: Huh7, JHH7 co-culture supernatant 24 hours, ELISA, normalized to untreated
Description: Liver tumor lines Hep3b, Huh7, and JHH7 cells were treated with MMAE, Tubulysin M, vincristine, and Paclitaxel for 24 hours and analyzed for ATP secretion. […] Cells were washed and harvested, and subsequently co-cultured with enriched macrophages prepared as above. Macrophages were harvested 4 days after co-culture and assayed for immune activation by flow cytometry. Levels of costimulation (as measured by CD86 expression, JHH7) and antigen-presentation (as measured by frequency of MHCII-expressing cells, Hep3b, Huh7, and JHH7) were quantified and normalized to macrophages that were co-cultured with […]. […] Supernatant from the co-culture of macrophages and dying liver tumor cells was harvested 24 hours later and assayed for levels of cytokine and chemokine production by ELISA and normalized to macrophages that were co-cultured with untreated tumor cells.

[11] = tested on: PC-3 prostate tumor cells; assay: ATP secretion from PC-3 cells
Description: PC-3 prostate tumor cells were also treated with MMAE, Vincristine, or Paclitaxel. Supernatant was collected after 16 hours of treatment, and analyzed for ATP secretion. […] PC-3 cells were treated for 24 hours with an MMAE-containing ADC (SGN-LIV1A) or MMAE and harvested in RIPA buffer for western blot analysis (FIG. 3C).

## CC[C@H](C)[C@@H]([C@@H](CC(=O)N1CCC[C@H]1[C@H](OC)[C@@H](C)C(=O)N[C@H](C)[C@@H](O)c1ccccc1)OC)N(C)C(=O)[C@@H](NC(=O)[C@@H](NC)C(C)C)C(C)C [MMAE, monomethyl auristatin E] (H-[NMeV]V[Dil][Dolaproine]-X1)
[1]
  Secretion of ATP: increased secretion
[2]
  Macrophage antigen presentation (frequency of MHCII-expressing macrophages): increase in macrophage antigen presentation
[3]
  Release of HMGB1: release of ATP and HMGB1
[4]
  ATP secretion: robust ATP secretion
[5]; western blot
  Severe ER stress (JNK signaling by phosphorylated IRE1, expression of CHOP): elicited by MMAE
[5]; western blot (100 nM MMAE elsewhere in the source)
  ER stress response (phosphorylation of IRE1 and eIF2a, cleavage of full-length ATF6): activated all 3 pathways of the ER stress response
[6]
  Antigen-presentation (frequency of MHCII-expressing cells): increase in antigen-presentation in 2/3 tumor cell lines that was more robust than Paclitaxel
[7]
  Cytokine and chemokine production: increase of the indicated cytokines and chemokines that was more robust than treatment with Paclitaxel
[8]
  Antigen-presentation (frequency of MHCII-expressing cells): increase in antigen-presentation in 1/2 tumor cell lines
[9]
  Cytokine and chemokine production: increase of the indicated cytokines and chemokines that was more robust than treatment with Paclitaxel
[10]
  Cytokine and chemokine production: increase of the indicated cytokines and chemokines that was more robust than treatment with Paclitaxel
[11]; FIG. 3D
  Release of ATP: release of ATP
[11]; supernatant after 16 hours
  ATP secretion: robust ATP secretion
